Results: patent publication US20040023986A1, “Substituted felbamate derived compounds” (priority 2003, published 2004)

Tests used:
[1] = human, after felbamate; cited from earlier work
[2] = felbamate therapy; cited from earlier work
[3] = LC/MS quantification of felbamate and its metabolites excreted in patient urine; format: in vivo, human; details: 34 urine samples from 31 patients on felbamate therapy
Description: Preparation of Patient Urine Samples. Urine samples were obtained from patient volunteers undergoing felbamate therapy for control of epileptic seizures and under the care of physicians at either the University of Virginia (Charlottesville, Va.) or the EpiCare Center (Memphis, Tenn.). Urine samples were diluted four fold with distilled water (this was done prior to overnight shipment for samples requiring shipping) and placed in an orbital shaking water bath for˜20 min at 37° C. to insure that all of the analytes were in solution. 500 μL of this diluted sample were removed and added to 100 μL of a mixture of the four deuterated internal standards. […] After mixing, 200 μL were removed and added to 20 μL of 20% H0Ac. […] This fraction was then analyzed by LC/MS without further manipulation.
LC/MS Analysis of Urine Samples for Metabolite Quantification. LC/MS analysis was performed using a Waters 2690 HPLC equipped with an autosampler and a Waters 486 tunable absorbance detector. […] The post-column flow was directed through a Waters 486 tunable absorbance detector (10 μL flow cell, λ=214 nm) which was used for qualitative assessment of the sample and not for quantitation. […]
Quantification was achieved by integration of the peaks from the mass chromatogram for each analyte using software (Navigator 1.1) provided with the LCQ. […]

[4] = cited from earlier work
[5] = test system: intractable tic douloureux; details: doses of 1200-2400 mg/day (Chesire 1995); cited from earlier work
[6] = test system: rat model of painful peripheral neuropathy; details: rat (Imamura 1995); cited from earlier work
[7] = Chemical stability of felbamate metabolites; format: physicochemical; details: at relevant pH

SMILES: NC(=O)CC(C(=O)O)c1ccccc1 (centres unmarked) [acid carbamate 4, 3-carbamoyl-2-phenylpropionic acid]
- fraction of a felbamate dose represented by the metabolite [1]: ~12 % of a dose

SMILES: NC(=O)OCC(COC(N)=O)c1ccccc1 [felbamate, 2-phenyl-1,3-propanediol dicarbamate]
- mean onset time of severe toxicities [2]: ≤ 6 months
- presence of atropaldehyde derived mercapturic acids 7 and 8 in urine [3]: All of the urine samples analyzed were found to contain both of the mercapturic acids
- course of weight loss ([4]; add-on therapy in partial epilepsy in children (Carmant 1994)): weight loss was transient and returned to normal after twenty weeks
- weight loss ([4]; patients on felbamate monotherapy (Faught 1993)): 4-5%
- treatment effect [5]: effectively treated
- measures of pain [6]: significant reductions in all measures of pain

SMILES: O=C1NC(=O)C(c2ccccc2)CO1 (centres unmarked) [oxazinane-dione 9]
- stability [7]: unstable
